The values that follow come from patent US20050250175A1, “Bacterial cell wall skeleton component preparaion” (priority 2002, published 2005).

Molecules are shown by their SMILES.

This series is described as follows: Viscosity of paste comprising BCG-CWS, co-axial bicylindrical viscometer. To be noted: unit not given. The class given is physicochemical. The method, then: “Viscosity” as used herein means a value determined by dynamic viscoelasticity measurement, for example, values obtained using a co-axial bicylindrical viscometer. In the present invention, viscosity may be measured using a co-axial bicylindrical viscometer manufactured by Rheology Co., Ltd (Model MR-300, Soliquid meter) at 25° C. under nitrogen atmosphere. One poise represents 0.1 Pa·s (pascal.sec).
The viscosity of the paste was measured at 25° C. using a co-axial bicylindrical viscometer manufactured by Rheology Co., Ltd (Model MR-300, Soliquid meter). The viscosity was measured to be 0.545 poise.

Turning to `CC(C)CCCC(C)CCCC(C)CCCCC(C)CCCC(C)CCCC(C)C` (stereo not shown) [squalane], the viscosity turned out to be 0.236.
